Laboratory results published in patent US9539248B2, “Agent for ameliorating chronic obstructive pulmonary disease” (LTT BIO-PHARMA CO., LTD., priority 2012, dated 2017).

Experiments:
[1] = system: poor lung function induced by porcine pancreatic elastase; assay: Test Example 3: FEV0.05/FVC in poor lung function induced by porcine pancreatic elastase, compared with muscarinic antagonists; format: in vivo, ICR mice; conditions: 38 μg/kg by airway administration once daily for 11 days, measured on Day 14 (FIG. 10)
Experimental: Measurement of a ratio of forced expiratory volume (FEV) in the first 0.05 seconds to forced vital capacity (FVC) (FEV0.05/FVC) was performed by using the above-mentioned computer-controlled small animal ventilator connected to a negative pressure reservoir (SCIREQ Scientific Respiratory Equipment Inc.). FEV0.05/PVC was determined by using the FlexiVent software. As with Test Example 1, 4 to 6 week old ICR mice were treated with porcine pancreatic elastase. […] On Day 14, FEV0.05/FVC was measured by the method described in the above-mentioned “Measurement of FEV0.05/FVC.”

[2] = system: porcine pancreatic elastase-induced inflammation; assay: Test Example 5: porcine pancreatic elastase-induced inflammation (BALF cell counts and cytokines); format: in vivo, ICR mice
Experimental: Different doses of mepenzolate were administered to 4 to 6 week old ICR mice once via the airway. 100 μg of porcine pancreatic elastase per mouse was administered one hour after administration of mepenzolate. Bronchoalveolar lavage fluid (BALF) was collected from the lung 24 hours after administration of porcine pancreatic elastase and a total cell count and a neutrophil count were measured. Furthermore, the total number of TNF-α, MIP-2, MCP-1, or KC in the bronchoalveolar lavage fluid when 38 μg/kg of mepenzolate was administered via the airway was measured by an ELISA method.

[3] = system: porcine pancreatic elastase-induced COPD model; assay: Test Example 8: rectal administration in porcine pancreatic elastase-induced COPD model, lung damage (H&E, MLI, elastance, FEV0.05/FVC); format: in vivo, ICR mice; conditions: intrarectal once daily for 14 days, different doses (mg/kg) (FIG. 22 to 24)
Experimental: 100 μg of porcine pancreatic elastase per mouse was administered to 4 to 6 week old ICR mice once via the airway to induce damage in the lung. Furthermore, different doses (mg/kg) of mepenzolate were administered to the mice intrarectally once daily for 14 days. After administration, sections of the lung tissues were excised. Subsequently, the sections were subjected to H&E dyeing, MLI measurement, and elastance measurement performed by a similar method to that in Test Example 1.

[4] = system: porcine pancreatic elastase pretreatment-induced pulmonary emphysema and altered lung function; assay: Test Example 2: porcine pancreatic elastase pretreatment-induced pulmonary emphysema and altered lung function; format: in vivo, ICR mice
Experimental: 100 μg of porcine pancreatic elastase per mouse and different doses of mepenzolate were dissolved in 30 μL of phosphate buffered saline (PBS) per mouse and this solution was injected into the airway of a mouse anesthetized with chloral hydrate by a micropipette.
(§1) Lung function and airway resistance were measured by using a computer-controlled small animal ventilator (FlexiVent, SCIREQ Scientific Respiratory Equipment Inc.).
A mouse was anesthetized with chloral hydrate, a tracheostomy was performed, and an 8 mm metal tube was inserted into the trachea. Ventilation was performed on the mouse with a volume of 8.7 mL/kg, a positive end-expiratory pressure of 2 to 3 cmH2O, and a respiratory rate of 150 times/min.
Total respiratory system elastance was measured by a snap shot technique and tissue elastance was measured by a forced oscillation technique.
After 4 to 6 week old ICR mice were used and treated with porcine pancreatic elastase by a similar method to that in Test Example 1, different doses (μg/kg) of mepenzolate were administered to these mice via the airway once daily from 14 days to 20 days after the treatment. Then, the mice were euthanized, sections of the lung tissues were prepared and dyed with H&E, and stained images were obtained by electron microscopy.
Subsequently, the airspace size in the cells in the obtained H&E stained images was measured as a mean linear intercept.
Then, on Day 21, the total respiratory system elastance and the tissue elastance were measured by a similar method to that in Test Example 1.

[5] = system: methacoline-induced airway constriction; assay: Test Example 9: rectal administration in methacoline-induced airway constriction; format: in vivo, mice; conditions: different doses (mg/kg) (FIG. 25)
Experimental: Increase in airway resistance induced by methacoline was measured. 4 to 6 week old ICR mice received 1 mg/mL methacoline by nebulization over 20 seconds and this was repeated five times. After administration of methacoline was completed, the airway resistance was measured by a snap shot technique. All the data were analyzed by using FlexiVent software. Different doses (mg/kg) of mepenzolate were administered intrarectally and airway resistance induced by methacoline was measured by a similar method to that in Test Example 4.

[6] = system: porcine pancreatic elastase-induced pulmonary emphysema and altered lung function; assay: Test Example 7: oral administration in porcine pancreatic elastase-induced pulmonary emphysema and altered lung function; format: in vivo, ICR mice; conditions: oral administration once daily for 14 days, different doses (mg/kg) (FIG. 18 to 20)
Experimental: 100 μg of porcine pancreatic elastase per mouse was administered to 4 to 6 week old ICR mice once via the airway. Then, different doses (mg/kg) of mepenzolate were administered to the mice orally once daily for 14 days. After administration, sections of the lung tissues were excised. Subsequently, the sections were subjected to H&E dyeing, MLI measurement, and elastance measurement performed by a similar method to that in Test Example 1.

[7] = system: porcine pancreatic elastase-induced COPD model; assay: Test Example 8: rectal administration in porcine pancreatic elastase-induced COPD model, inflammatory cells in alveolar lavage fluid; format: in vivo, ICR mice; conditions: intrarectal once daily, lavage fluid collected 3 days later (FIG. 21)
Experimental: 100 μg of porcine pancreatic elastase per mouse was administered to 4 to 6 week old ICR mice once via the airway to induce damage in the lung. Different concentrations of mepenzolate were administered intrarectally once daily. The alveolar lavage fluid was collected 3 days later and the total cell count was counted. The neutrophil count was also counted by dyeing the cells by a Diff-Quick technique.

[8] = system: pulmonary emphysema and altered lung function resulting from smoking; assay: Test Example 6: pulmonary emphysema and altered lung function resulting from smoking; format: in vivo, DBA/2 mice; conditions: cigarette smoke 6 weeks
Experimental: Three-times-a-day exposure to smoking and once-a-day coadministration of 38 μg/kg of mepenzolate were performed on 5 week old DBA/2 mice, 5 days a week (Monday to Friday) for 6 weeks. The mice were subjected to only smoking during the final week. The mice were subjected to smoking by the method described below. 15 to 20 mice were placed in a 45 L chamber and the chamber was connected to a cigarette smoke generator. Commercially available unfiltered cigarette that produced 28 mg of tar and 2.3 mg of nicotine were used. The mice were exposed to smoke of one cigarette over 35 minutes, which was repeated three times a day for five days a week. This was continued for 6 weeks. The mice were made to inhale the cigarette smoke 15 times over a 5-minute period. Mepenzolate was administered to the mice by inhalation. After smoking was completed, the mice were euthanized, sections of the lung tissues were prepared and dyed with H&E, and stained images were obtained by electron microscopy. The airspace size in the cells in the H&E stained images obtained above was measured as a mean linear intercept. Then, the total respiratory system elastance and the tissue elastance were measured by a similar method to that in Test Example 1.

[9] = system: methacholine-induced airway constriction; assay: Test Example 4: methacholine-induced airway constriction, airway administration; format: in vivo, ICR mice
Experimental: as §1
Increase in airway resistance induced by methacoline was measured. 4 to 6 week old ICR mice received 1 mg/mL methacoline by nebulization over 20 seconds and this was repeated five times. After administration of methacoline was completed, the airway resistance was measured by a snap shot technique. All the data were analyzed by using FlexiVent software.
Different doses (μg/kg) of mepenzolate were administered to the mice via the airway, and one hour after administration, the mice received five exposures to nebulized methacoline, and then, the airway resistance for each dose was measured.
Furthermore, mepenzolate was administered to the mice at a dose of 38 μg/kg. Then, the mice received five exposures to nebulized methacoline at 6 hours, 24 hours, and 48 hours after drug administration. The airway resistance for each time length was measured.

[10] = system: porcine pancreatic elastase-induced pulmonary emphysema and altered lung function; assay: Test Example 1: porcine pancreatic elastase-induced pulmonary emphysema and altered lung function, mepenzolate via the airway or by inhalation; format: in vivo, ICR mice; conditions: for damage in the alveolar wall: H&E sections; for mean linear intercept (MLI): PPE 100 μg per mouse
Experimental: 100 μg of porcine pancreatic elastase per mouse and different doses of mepenzolate were dissolved in 30 μL of phosphate buffered saline (PBS) per mouse and this solution was injected into the airway of a mouse anesthetized with chloral hydrate by a micropipette. A mouse was placed in a chamber. Then, the whole amount of a mepenzolate solution prepared by dissolving mepenzolate in 10 mL of PBS was sprayed onto the mouse over 30 minutes by using an ultrasonic nebulizer (NE-U07, manufactured by OMRON Corporation) that was connected to the chamber. Lung function and airway resistance were measured by using a computer-controlled small animal ventilator (FlexiVent, SCIREQ Scientific Respiratory Equipment Inc.). A mouse was anesthetized with chloral hydrate, a tracheostomy was performed, and an 8 mm metal tube was inserted into the trachea. Ventilation was performed on the mouse with a volume of 8.7 mL/kg, a positive end-expiratory pressure of 2 to 3 cmH2O, and a respiratory rate of 150 times/min. Total respiratory system elastance was measured by a snap shot technique and tissue elastance was measured by a forced oscillation technique. Data analysis was conducted by using FlexiVent software. A lung damage model for pulmonary emphysema and altered lung function was generated by administering 100 μg of porcine pancreatic elastase per mouse to 4 to 6 week old ICR mice once via the airway. Different doses of mepenzolate were administered to these mice via the airway (μg/kg) or by inhalation (μg/chamber) once daily for 14 days (Day 0 to Day 13) and the mice were euthanized on Day 14. Sections of the lung tissues were prepared and dyed with H&E (hematoxylin-eosin staining), and stained images were obtained by electron microscopy. The airspace size in the cells in the H&E stained images obtained above was measured as a mean linear intercept (MLI; μm). Then, on Day 14, the total respiratory system elastance and the tissue elastance were measured by the method described in the above-mentioned “Measurement of Elastance.”

[11] = 38 μg/kg via the airway, ELISA (FIG. 14)
[12] = different doses once via the airway 1 h before PPE, BALF 24 hours after PPE (FIG. 13)
[13] = airway administration, Day 21 (FIG. 9)
[14] = 38 μg/kg once a day by inhalation (FIG. 17)
[15] = airway administration, Day 14 (FIG. 3)
[16] = inhalation administration, Day 14 (FIG. 6)

C[N+]1(C)CCC[C@@H](OC(=O)C(O)(c2ccccc2)c2ccccc2)C1 (racemic) [mepenzolate, mepenzolate bromide]
recovering effect of vital capacity represented by FEV0.05/FVC reduced by PPE administration [1]: effectively exhibited a recovering effect
KC in the BALF [2, 11]: decreased
MCP-1 in the BALF [2, 11]: decreased
MIP-2 in the BALF [2, 11]: decreased
TNF-α in the BALF [2, 11]: decreased
neutrophil count of the BALF [2, 12]: decreased dependently on the dose
total cell count of the BALF [2, 12]: decreased dependently on the dose
damage in the lung induced by elastase (H&E, MLI, elastance, FEV0.05/FVC) [3]: improved damage in the lung induced by elastase
damage in the alveolar wall ([4]; airway administration once daily from 14 to 20 days after PPE treatment): improved dose-dependently
mean linear intercept ([4]; airway administration once daily from 14 to 20 days after PPE treatment (FIG. 7, 8)): suppressed
tissue elastance [4, 13]: significantly improved
total respiratory system elastance [4, 13]: significantly improved
airway resistance induced by methacoline [5]: showed an excellent effect
damage in the lung (H&E, MLI, elastance) [6]: improved damage in the lung
inflammatory cells (total cell count, neutrophil count) in alveolar lavage fluid [7]: decrease in the inflammatory cells was observed
damage in the alveolar wall ([8]; 38 μg/kg once a day by inhalation): improved
mean linear intercept ([8]; 38 μg/kg once a day by inhalation (FIG. 15, 16)): suppressed
tissue elastance [8, 14]: significantly improved
total respiratory system elastance [8, 14]: significantly improved
airway resistance induced by methacoline, duration of effect ([9]; 38 μg/kg, methacoline at 6, 24 and 48 hours after administration (FIG. 12)): reduced the airway resistance even 24 hours after administration
airway resistance induced by methacoline ([9]; airway administration at 0.04, 0.08, 0.38, 3.8 and 38.0 μg/kg, one hour after administration (FIG. 11)): reduced the airway resistance almost dose-dependently
damage in the alveolar wall ([10]; airway administration once daily for 14 days): improved
mean linear intercept (MLI) ([10]; airway administration once daily for 14 days, Day 14 (FIG. 1, 2)): suppressed
tissue elastance [10, 15]: significantly improved
total respiratory system elastance [10, 15]: significantly improved
damage in the alveolar wall ([10]; inhalation administration once daily for 14 days): improved
mean linear intercept (MLI) ([10]; inhalation administration once daily for 14 days, Day 14 (FIG. 4, 5)): suppressed
tissue elastance [10, 16]: significantly improved
total respiratory system elastance [10, 16]: significantly improved
suppressive effect on mean linear intercept, inhalation compared with airway administration ([10]; inhalation vs airway administration): inhalation administration had a slightly better suppressive effect

CN1CCN(CC(=O)N2c3ccccc3C(=O)Nc3cccnc32)CC1 [pirenzepine]
recovering effect of vital capacity represented by FEV0.05/FVC reduced by PPE administration [1]: did not show a significant recovering effect
